Data as given in paper PMC8434491, “Targeting the Integrated Stress Response Kinase GCN2 to Modulate Retroviral Integration” (Molecules, 2021).

Tests used:
[1] = target: T1, IN's phosphorylation catalyzed by GCN2 (Homo sapiens, UniProt Q9P2K8); assay: In vitro phosphorylation assay: phosphorylation of IN catalyzed by GCN2; type: biochemical, human GCN2 / HIV-1 IN
T1 construct: expressed as a truncated version (192-1024) in fusion after a glutathione S-transferase tag; purchased SignalChem (GCN2); IN made in house in E. coli BL21 pLys E12-11G; host or cells: E. coli BL21 pLys (IN)
T1 sequence (Q9P2K8 192-1024): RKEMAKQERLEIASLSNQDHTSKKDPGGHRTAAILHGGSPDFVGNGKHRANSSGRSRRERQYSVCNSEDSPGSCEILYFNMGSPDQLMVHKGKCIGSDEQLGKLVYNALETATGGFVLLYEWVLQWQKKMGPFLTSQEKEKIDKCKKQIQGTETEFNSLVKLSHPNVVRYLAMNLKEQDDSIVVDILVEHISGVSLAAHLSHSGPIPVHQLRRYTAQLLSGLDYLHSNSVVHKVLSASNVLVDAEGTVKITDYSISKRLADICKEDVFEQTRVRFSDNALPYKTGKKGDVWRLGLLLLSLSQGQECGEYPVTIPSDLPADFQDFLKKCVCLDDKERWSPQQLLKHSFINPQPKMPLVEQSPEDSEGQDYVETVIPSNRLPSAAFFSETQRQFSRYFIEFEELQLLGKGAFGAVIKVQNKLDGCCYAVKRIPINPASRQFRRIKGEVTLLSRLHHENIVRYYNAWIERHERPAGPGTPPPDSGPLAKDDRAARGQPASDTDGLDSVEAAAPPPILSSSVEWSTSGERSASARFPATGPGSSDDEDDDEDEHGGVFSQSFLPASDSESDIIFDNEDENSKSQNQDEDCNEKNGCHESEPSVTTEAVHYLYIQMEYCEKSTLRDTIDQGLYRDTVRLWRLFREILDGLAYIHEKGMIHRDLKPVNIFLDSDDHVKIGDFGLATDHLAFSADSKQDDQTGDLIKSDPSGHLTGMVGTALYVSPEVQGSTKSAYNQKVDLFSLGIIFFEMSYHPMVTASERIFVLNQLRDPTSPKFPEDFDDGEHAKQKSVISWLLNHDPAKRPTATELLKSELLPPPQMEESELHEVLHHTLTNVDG
Experimental: Enzymes. GCN2 was purchased from SignalChem (EIF2AK4, cat. #E12-11G). […] Recombinant full-length IN was expressed in E. coli BL21 pLys (IPTG induction) and purified on a nickel chelating column, as described. Integrity and purity were checked by direct Coomassie coloration of elution fractions on SDS-PAGE before dialysis to remove imidazole.
In vitro phosphorylation assay. […] Reactions (20 µL) were stopped after a 60 min incubation at 30 °C by adding 10 µL of loading buffer [80 mM Tris-HCl pH 6.8, 100 mM DTT, 10% glycerol, 1% sodium dodecyl sulfate (SDS) and 0.05% bromophenol blue]. Samples were then loaded onto a 10% denaturating SDS-PAGE. After protein separation (120 V for 120 min) the gel was stained using Coomassie Brilliant Blue R-250. Autoradiography was performed using an imaging plate (Fujifilm, Tokyo, Japan) and images were obtained with a FLA-5000 Imaging System (Fujifilm).

[2] = target: T2, HIV-1 IN (Human immunodeficiency virus type 1 group M subtype B, UniProt P04585); assay: Integrase reaction, strand transfer (ST), gel-based; type: biochemical; conditions: serial dilutions from 100 µM to 45.7 nM
T2 construct: Recombinant full-length IN was expressed in E. coli BL21 pLys; 6xHis; made in house; host or cells: E. coli BL21 pLys
Experimental: Oligonucleotides. Oligonucleotides were purchased from Integrated DNA Technologies, Inc. (Leuven, Belgium), purified on polyacrylamide gel through electro-elution and dissolve in water. 19T ([…]) and 21B ([…]) correspond to the cleaved and non-cleaved strands specifically recognized by HIV-1 IN. Radiolabeling of 19T at the 5′-end was performed with [γ-^32P] ATP (Perkin-Elmer, Villebon-sur-Yvette, France) using T4 polynucleotide kinase (Promega, Charbonnières-les-Bains, France), according to the manufacturers’ instructions. Unincorporated isotopes were removed using illustra microspin G-25 Columns (Cytiva life sciences, Amersham, Little Chalfont, United Kingdom). DNA duplexes were annealed using an equimolar ratio of the complementary strand 21B, heating to 95 °C, and slow cooling to room temperature.
Integrase reactions. IN reactions were carried out by adding molecules or an equivalent volume of 100% DMSO (dimethyl sulfoxide, used as the drug solvent) to a mixture of 20 nM duplex DNA (19T/21B) and 400 nM IN in 50 mM MOPS pH 7.2, 7.5 mM MgCl2, and 14 mM 2-mercaptoethanol. Reactions were performed at 37 °C for 1 h and quenched by addition of an equal volume (10 µL) of loading buffer [formamide containing 1% SDS (sodium dodecyl sulfate), 0.25% bromophenol blue, and xylene cyanol]. Reaction products were separated in 16% polyacrylamide denaturing sequencing gels. Dried gels were visualized using a FLA-5000 imaging system (Fujifilm). Densitometric analyses were performed using the ImageQuant 5.1 software (GE Healthcare, Chicago, IL, USA) and data analyzed using Prism 6.05 software (GraphPad, San Diego, CA, USA).

[3] = target: T3, GCN2 (Homo sapiens, UniProt Q9P2K8); assay: In vitro phosphorylation assay: GCN2 activation (auto-phosphorylation); type: biochemical; conditions: without IN, read-out: GCN2 auto-phosphorylation signal, % of the DMSO control
T3 construct: expressed as a truncated version (192-1024) in fusion after a glutathione S-transferase tag; purchased SignalChem E12-11G
T3 sequence (Q9P2K8 192-1024): T1 sequence (Q9P2K8 192-1024)

For O=C1c2c(O)ccc(O)c2C(=O)c2c(NCCNCCO)ccc(NCCNCCO)c21 [NSC279836, Mitoxantrone], which “concentration giving full inhibition of IN phosphorylation” value ([1]; serial dilutions from 300 µM to 137 nM) is on record?
Its value is 300 µM.

And the “apparent IC50, IN phosphorylation” value ([1]; serial dilutions from 300 µM to 137 nM, in words)?
The value was “low micromolar range”.

What about the inhibition at 100 µM ([1]; single dose of 100 µM, compared to DMSO, read-out: decrease (inhibition) in IN phosphorylation) of the same compound?
Its inhibition at 100 µM is ~65%.

What about the “concentrations giving full inhibition of ST activity” value ([2]; only IN present) of the same compound?
Its value is “above 11 µM”.

And the “effect on IN strand transfer activity” value ([2]; only IN present)?
Its value is “active”.

And the “apparent IC50, ST activity” value ([2]; in words)?
The value was “low-micromolar range”.

And the remaining activity at 100 µM [3]?
The remaining activity at 100 µM was 145%.
